The source of these data is publication PMC10108347, “Heterobifunctional Ligase Recruiters Enable pan-Degradation of Inhibitor of Apoptosis Proteins” (Journal of Medicinal Chemistry, 2023).

Where two headings read alike, the source gives them in different places. Some results are limits rather than exact numbers.

Data set [1] has as its system K562. The experiment in a line: CellTiter-Glo cell viability assay, K562. Format: cell-based. The settings on record: Homo sapiens. Here is the method:
As TNF-α and related signaling cascades represent crucial factors for the single-agent activity of IAP-targeting compounds,[29],[38],[39],[55] the viability inhibition of sensitive cell lines was evaluated in the presence and absence of this inflammatory stimulus. […] These effects were independent of IAP baseline levels (Figure S16), which is in agreement with the previous studies of IAP antagonists.
Cells were seeded in 384-well plates with respective treatments, and plates were incubated at 37 °C for 96 h. Viability assays were performed with or without the addition of TNF-α at 1 ng/mL. The cell viability readout was measured using the CellTiter-Glo Luminescent Cell Viability Assay (Promega, Madison, USA) and measured with a Synergy LX Multi-Mode plate reader (BioTek, Vermont, USA). All conditions were normalized to the DMSO-treated control. Data represents the mean ± SD of biological triplicates.

Data set [2] deals with cIAP2 (Homo sapiens, UniProt Q13489). Nature of the data set: Immunoblotting (western blot) quantification of cIAP2 levels in MM.1S cells. On the set-up: Dmax: dose or concentration left out as unconfirmed.
cIAP2, sequence (Q13489 whole entry): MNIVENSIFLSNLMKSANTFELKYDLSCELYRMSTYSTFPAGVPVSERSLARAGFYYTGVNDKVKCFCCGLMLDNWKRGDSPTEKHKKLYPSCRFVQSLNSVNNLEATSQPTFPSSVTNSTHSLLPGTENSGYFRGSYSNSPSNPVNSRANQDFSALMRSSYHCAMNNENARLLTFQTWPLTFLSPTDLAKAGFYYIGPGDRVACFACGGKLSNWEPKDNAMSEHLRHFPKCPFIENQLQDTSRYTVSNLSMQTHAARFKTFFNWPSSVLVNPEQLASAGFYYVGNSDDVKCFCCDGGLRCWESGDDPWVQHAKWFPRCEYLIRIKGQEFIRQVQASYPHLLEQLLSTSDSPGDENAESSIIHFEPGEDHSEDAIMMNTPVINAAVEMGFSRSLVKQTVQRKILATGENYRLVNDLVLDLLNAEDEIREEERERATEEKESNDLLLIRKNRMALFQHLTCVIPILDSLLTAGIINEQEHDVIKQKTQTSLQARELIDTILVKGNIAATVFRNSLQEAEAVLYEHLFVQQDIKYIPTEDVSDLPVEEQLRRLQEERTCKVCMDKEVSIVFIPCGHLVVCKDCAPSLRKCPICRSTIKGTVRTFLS
Data set [3] deals with T1, plasma protein (HSA column) (Homo sapiens, UniProt P02768).
T1 construct: purchased
T1 sequence (P02768 25-609): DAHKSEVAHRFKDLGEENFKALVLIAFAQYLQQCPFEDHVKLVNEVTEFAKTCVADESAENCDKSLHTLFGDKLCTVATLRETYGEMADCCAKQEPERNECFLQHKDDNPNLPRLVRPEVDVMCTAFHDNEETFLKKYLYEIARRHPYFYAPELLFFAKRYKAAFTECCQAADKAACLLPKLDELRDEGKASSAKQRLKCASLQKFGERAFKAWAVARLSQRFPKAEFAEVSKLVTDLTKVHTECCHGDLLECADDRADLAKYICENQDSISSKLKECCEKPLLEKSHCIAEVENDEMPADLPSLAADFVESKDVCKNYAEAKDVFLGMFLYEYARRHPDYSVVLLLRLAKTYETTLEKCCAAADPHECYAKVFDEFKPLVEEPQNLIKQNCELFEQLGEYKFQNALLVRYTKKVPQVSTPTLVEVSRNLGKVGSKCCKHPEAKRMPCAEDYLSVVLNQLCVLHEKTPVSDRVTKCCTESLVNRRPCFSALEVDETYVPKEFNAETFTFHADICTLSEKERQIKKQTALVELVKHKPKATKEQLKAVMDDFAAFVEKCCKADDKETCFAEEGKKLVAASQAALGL
Nature of the data set: Plasma protein binding estimated by HPLC on a […] HSA column. Format: in vitro ADME. The conditions noted are these: CHIRALPAK HSA column (50 × 3 mm, 5 μm), estimated by an HPLC-based method, read-out: PPB (plasma protein binding) (converted). In short, it runs like this: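 % PPB was estimated from log retention time on an HSA column (50 × 3 mm, 5 μm, 30 °C), calibrated against log K of literature-PPB reference drugs. Samples were eluted with 50 mM ammonium acetate pH 7.4 and an iPrOH gradient to 30%, with UV detection at 254 nm.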

Data set [4] concerns the target VHL19 (Homo sapiens, UniProt P40337). Nature of the data set: Immunoblotting (western blot) quantification of VHL19 levels in MM.1S cells. The settings on record: 16 h, 1 μM.
Method: (§1) To evaluate the capability of our panel of hetero-PROTACs for E3 ligase degradation, VHL19, VHL30, CRBN, cIAP1, cIAP2, and XIAP levels were quantified by western blot analyses. […] SDS-PAGE was performed, and proteins were then transferred onto PVDF membranes. Blotted membranes were blocked with 5% milk in Tris-buffered saline/Tween20 (TBST). Primary antibodies were diluted in 5% BSA in TBST, and incubations were performed overnight at 4 °C. Secondary HRP-conjugated antibodies diluted in 5% milk were incubated for 1 h at room temperature. Detection of proteins on PVDF was carried out using the WesternBright ECL HRP substrate or the WesternBright Sirius HRP substrate (Advansta, San Jose, USA) and imaged with LAS 4000× (Fujifilm). Membranes were subjected to 10 min incubation with Restore Western Blot Stripping Buffer (Thermo Fisher Scientific, Waltham, USA), followed by TBST washes. After brief re-activation with methanol, the membranes were blocked, and further probing of proteins was carried out.
(§2) Quantification of blots was performed using ImageJ software (National Institutes of Health).
Data set [5] concerns the target VHL30 (Homo sapiens, UniProt P40337). The experiment in a line: Immunoblotting (western blot) quantification of VHL30 levels in MM.1S cells.
Method: as §1, §2
Data set [6] concerns the target CRBN (Homo sapiens, UniProt Q96SW2). Nature of the data set: Immunoblotting (western blot) quantification of CRBN levels in MM.1S cells. The settings on record: MM1.S, 16 h, read-out: %remaining protein CRBN.
Method: as §1, §2
Data set [7] has as its system IKZF3. The experiment in a line: Immunoblotting (western blot) quantification of IKZF3 levels in MM.1S cells. The conditions noted are these: for %remaining protein IKZF3: 16 h treatment at 0.1 μM, normalized to loading control and DMSO.
Method: as §1, §2
The mark [8] stands for this setting: MM1.S, 16 h, read-out: %remaining protein cIAP2, MM.1S cells, 16 h treatment at 0.1 μM, normalized to loading control and DMSO.

VHL30, sequence (P40337 whole entry): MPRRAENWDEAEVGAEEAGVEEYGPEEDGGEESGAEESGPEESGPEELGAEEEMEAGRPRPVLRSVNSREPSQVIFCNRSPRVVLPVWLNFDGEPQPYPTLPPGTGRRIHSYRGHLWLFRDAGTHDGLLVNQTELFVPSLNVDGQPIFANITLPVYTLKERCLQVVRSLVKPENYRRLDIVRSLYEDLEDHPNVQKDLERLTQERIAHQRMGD
CRBN, sequence (Q96SW2 whole entry): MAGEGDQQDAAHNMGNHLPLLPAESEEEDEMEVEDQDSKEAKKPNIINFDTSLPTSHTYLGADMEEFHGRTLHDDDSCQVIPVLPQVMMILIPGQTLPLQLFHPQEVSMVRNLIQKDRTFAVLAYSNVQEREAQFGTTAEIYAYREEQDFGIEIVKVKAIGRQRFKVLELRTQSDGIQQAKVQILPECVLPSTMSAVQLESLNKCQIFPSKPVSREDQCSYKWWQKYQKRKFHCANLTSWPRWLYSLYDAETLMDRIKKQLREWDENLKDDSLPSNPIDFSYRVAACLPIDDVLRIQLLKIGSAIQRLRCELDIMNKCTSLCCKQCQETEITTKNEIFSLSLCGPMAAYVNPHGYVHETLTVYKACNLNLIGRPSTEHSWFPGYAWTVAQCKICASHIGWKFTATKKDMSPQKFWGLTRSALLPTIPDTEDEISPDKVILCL
VHL19, sequence (P40337 54-213): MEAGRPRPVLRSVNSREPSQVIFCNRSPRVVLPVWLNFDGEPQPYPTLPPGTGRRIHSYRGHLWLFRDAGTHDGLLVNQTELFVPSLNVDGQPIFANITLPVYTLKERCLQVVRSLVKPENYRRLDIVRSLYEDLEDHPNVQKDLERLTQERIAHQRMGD

`CN[C@@H](C)C(=O)N[C@@H](C(=O)N1CCC[C@H]1C(=O)N[C@@H]1c2ccccc2C[C@@H]1OCC#CC#CCO[C@H]1Cc2ccccc2[C@H]1NC(=O)[C@@H]1CCCN1C(=O)[C@H](NC(=O)[C@H](C)NC)C1CCCCC1)C1CCCCC1` [AZD5582, reference compound]: the IC50 in data set [1] (SI csv, head prints only the cell line, no quantity or unit, values parallel Table 1/S8, read-out: K562) was 19 nM. For the same compound, the “cIAP2 degradation (in words)” value in data set [2] (MM.1S cells, 16 h, western blot, 0.1 or 1 μM) was “substantial degradation”. Moreover, the fraction unbound at 0.5 mg/mL in data set [3] was 0.06.

With `CN[C@@H](C)C(=O)N[C@H](C(=O)N1C[C@@H](Oc2cccc(OCCCCC(=O)N[C@H](C(=O)N3C[C@H](O)C[C@H]3C(=O)N[C@@H](C)c3ccc(-c4scnc4C)cc3)C(C)(C)C)c2)C[C@H]1C(=O)N[C@@H]1CCCc2ccccc21)C1CCCCC1` [PROTAC 9, (2S,4S)-1-((S)-2-Cyclohexyl-2-((S)-2-(methylamino)propanamido)acetyl)-4-(3-((5-(((S)-1-((2S,4R)-4-hydroxy-2-(((S)-1-(4-(4-methylthiazol-5-yl)phenyl)ethyl)carbamoyl)pyrrolidin-1-yl)-3,3-dimethyl-1-oxobutan-2-yl)amino)-5-oxopentyl)oxy)phenoxy)-N-((R)-1,2,3,4-tetrahydronaphthalen-1-yl)pyrrolidine-2-carboxamide], the IC50 in data set [1] (K562, AML cell line, 96 h, TNFα-challenged, read-out: IC50 cell viability K562) was 420 nM. The remaining activity at 0.1 µM in data set [2] (setting [8]) was found to be 21%; in data set [5] (MM1.S, 16 h, read-out: %remaining protein VHL30, MM.1S cells, 16 h treatment at 0.1 μM, normalized to loading control and DMSO), 9%. Further, the maximal degradation (Dmax) in data set [2] (MM1.S, read-out: Dmax cIAP2 (maximum degradation), MM.1S cells, 16 h) was 90%. Moreover, in data set [2] (MM.1S cells, 16 h, at 0.1 μM), the “Dmax cIAP2 (maximum degradation)” value is reported as >90%. For the same compound, the DC50 in data set [2] (read-out: DC50,16h cIAP2, MM.1S cells, 16 h, densitometric quantification of western blots, n = 4) was 6.2 nM. For the same compound, the “remaining VHL19” value in data set [4] was found to be 24%. Also, the “VHL30 degradation (in words)” value in data set [5] (MM.1S cells, western blot) was “most pronounced after 6 h of treatment”.

As to `CN[C@@H](C)C(=O)N[C@H](C(=O)N1C[C@@H](Oc2cccc(OCCOCCCCCCOCCCCCCNc3cccc4c3C(=O)N(C3CCC(=O)NC3=O)C4=O)c2)C[C@H]1C(=O)N[C@@H]1CCCc2ccccc21)C1CCCCC1` (stereo partly drawn) [PROTAC 25, (2S,4S)-1-((S)-2-Cyclohexyl-2-((S)-2-(methylamino)propanamido)acetyl)-4-(3-(2-((6-((6-((2-(2,6-dioxopiperidin-3-yl)-1,3-dioxoisoindolin-4-yl)amino)hexyl)oxy)hexyl)oxy)ethoxy)phenoxy)-N-((R)-1,2,3,4-tetrahydronaphthalen-1-yl)pyrrolidine-2-carboxamide], in data set [1] (K562, read-out: K562), the IC50 stood at 380 nM. For the same compound, the remaining activity at 0.1 µM in data set [6] turned out to be 91%; in data set [2] (MM1.S, 16 h, read-out: %remaining protein cIAP2), 8%. Moreover, the “IKZF3 degradation (in words)” value in data set [7] (16 h, 1 μM) is given as “substantial IKZF3 degradation at 1 μM”. The “%remaining protein IKZF3” value in data set [7] is 95%.

`CN[C@@H](C)C(=O)N[C@H](C(=O)N1C[C@@H](Oc2cccc(OCCCCCCOCCCCCCOCCCCCCNc3cccc4c3C(=O)N(C3CCC(=O)NC3=O)C4=O)c2)C[C@H]1C(=O)N[C@@H]1CCCc2ccccc21)C1CCCCC1` (stereo partly drawn) [PROTAC 27, (2S,4S)-1-((S)-2-Cyclohexyl-2-((S)-2-(methylamino)propanamido)acetyl)-4-(3-((6-((6-((6-((2-(2,6-dioxopiperidin-3-yl)-1,3-dioxoisoindolin-4-yl)amino)hexyl)oxy)hexyl)oxy)hexyl)oxy)phenoxy)-N-((R)-1,2,3,4-tetrahydronaphthalen-1-yl)pyrrolidine-2-carboxamide]: the remaining activity at 0.1 µM in data set [6] worked out at 95%; in data set [2] (setting [8]) it was 46%. In data set [7], the “%remaining protein IKZF3” value is given as 95%.
